In US10421769B2, “Anticancer property studies of chiral palladium N-heterocyclic carbene complexes and process for preparation thereof” (Indian Institute of Technology Bombay, priority 2017, dated 2019):
“Also recorded” adds a separate entry of the source. Where two headings read alike, the source gives them in different places.

Tests used:
MCF-7 cells [1] = experiment: Live dead assay by flow cytometry using propidium iodide; format: cell-based, human; settings: for Dead % / Live %: 48 h
Description: MCF-7 cells (5 mL) were seeded in 60 mm cell culture dishes at a density of 1.5×10^5 cells/mL. Cells were incubated with 4 and 8 μM (1R,2R,5S)-1c for 48 h for live dead assay. After the required incubation, cells were processed and analyzed by flow cytometry. Percentage of live and dead MCF-7 cells in the absence and presence of 4 and 8 μM (1R,2R,5S)-1c and 4 μM cisplatin was determined by flow cytometry using propidium iodide (PI).

B16-F10 cells = experiment: Sulforhodamine B assay, B16-F10 skin cancer cells; format: cell-based, mouse; settings: SRB
Description: (§1) The present invention further provides a Sulforhodamine B assay method for investigating the anti-cancer efficacies of the compounds of the present Pd—NHC series on MCF-7, HeLa, A549, B16-F10 and EMT6/AR1 cancer cell lines and also for a comparative study on normal skin cell line L929 and normal epithelial breast cells MCF10A. The said Sulforhodamine B assay is conducted as per reported method (Skehan et al., J. Natl. Cancer Inst. 1990, 82, 1107).

γ-H2AX in MCF-7 cells = experiment: Immunofluorescence microscopy for DNA damage (γ-H2AX); format: cell-based, human; settings: MCF-7, 4 and 8 μM, 36 h; cisplatin 4 μM as comparison
Description: Experiment: MCF-7 (5×10^4 cells/well) cells were seeded on glass cover slip in a 24 well cell culture plate. After the cell were attached, they were incubated with 4 and 8 μM (1R,2R,5S)-1c and 4 μM cisplatin for 36 h, fixed with 3.7% formaldehyde and processed for immunostaining. After fixing, cells were blocked with 2% BSA and incubated with anti-γ H2AX IgG (1:200) for 2 h at 37° C. followed by Alexa flour 555 goat anti-rabbit secondary IgG (1:400) for 1 h at 37° C. Hoechst 33258 was used to stain the DNA. Immunofluorescence imaging was performed using iPlan-apochromat 40×/1.3 NA oil immersion objective in Confocal Laser Scanning microscope. Image J software was used to calculate the fluorescence intensity. 500 cells were scored in each case.

p21 in MCF-7 cells = experiment: Immunostaining for nuclear accumulation of p21; format: cell-based, human; settings: MCF-7, 4 and 8 μM, 36 h
Description: Experiment: MCF-7 (5×10^4 cells/well) cells were seeded on glass cover slip in a 24-well cell culture plate. After the cells were attached, they were incubated with 4 and 8 μM (1R,2R,5S)-1c for 36 h, fixed with 3.7% formaldehyde and processed for immunostaining. After fixing, cells were blocked with 2% BSA and incubated with anti-p53 IgG (1:300) and anti-p21 IgG (1:300) for 2 h at 37° C. Primary antibody incubation was followed by Alexa Fluor 568-conjugated sheep anti-mouse secondary IgG (1:400) incubation for 1 h at 37° C. Hoechst 33258 was used to stain the DNA. Immunofluorescence images were captured using Eclipse TE 2000U microscope (Nikon, Tokyo, Japan) at 40× magnification and processed by Image-Pro Plus software (Media Cybernetics, Silver Spring, Md.). To determine the percentage of cells with nuclear accumulation of p53 and p21, 1000 cells were scored in each case. The experiment was repeated thrice.

A549 cells = experiment: Sulforhodamine B assay, A549 lung cancer cells; format: cell-based, human; settings: SRB
Description: as §1

MCF-7 cells [2] = experiment: Sulforhodamine B assay, proliferation of MCF-7 cells; format: cell-based, human; settings: for IC50: MCF-7 breast cancer cells, one cell cycle (48 h), SRB
Description: as §1
Experiment: The anti-proliferative activity of the present palladium N-heterocyclic carbene complexes on two different cancer cell lines MCF-7 and HeLa is tested using Sulforhodamine B assay to reveal their anti-tumor properties. The evaluation of growth inhibition of these complexes is done from their IC50 values for the inhibition of cell growth. The IC50 values are compared with Cisplatin to determine any increase in efficacy.
Method: The effects of present series of palladium N-heterocyclic carbene complexes, such as compounds (1S,2S,5R)-(1-3)b and (1R,2R,5S)-(1-3)b; (1S,2S,5R)-(1, 3)c and (1R,2R,5S)-(1, 3)c on the proliferation of MCF-7 cells after one cell cycle are determined by Sulforhodamine B assay. In particular, 1×10^5 cells/mL are seeded in each well in 96-well plates for 24 h and then incubated without or with different concentrations of these complexes at 37° C. for one cell cycle (48 h). After incubation of cells with the complexes for one cell cycle, cell growth is stopped by the addition of 50% trichloroacetic acid and stained with 0.4% sulforhodamine B dissolved in 1% acetic acid. Unbound dye is removed by washing with 1% acetic acid, and the protein content is determined by measuring absorbance at 520 nm in a Bio-Rad model 680 microplate reader after extracting with 10 mM tris base. IC50 value is calculated as the concentration of the complex that inhibited the proliferation of cells by 50% relative to the untreated control cells. The anticancer activities of the present Pd—NHC compounds are graphically represented in accompanying FIG. 1.
The data obtained is graphically represented in accompanying FIG. 2.

“trans-[1-(1R)-menthyl-4-(ethyl)-1,2,4-triazol-5-ylidene]2Pd(OCOCF3)2 [(1R,2R,5S)-1c]” was tested, and the “Cell death (in words)” value (MCF-7 cells [1]; MCF-7) was “leads to cell death in MCF-7 cells”, the Dead % (MCF-7 cells [1]; MCF-7, 4 μM) was 41 ± 2% and the Live % (MCF-7 cells [1]; MCF-7, 4 μM) was 59 ± 2%. For the same substance, the Dead % (MCF-7 cells [1]; MCF-7, 8 μM) was 90 ± 1%, the Live % (MCF-7 cells [1]; MCF-7, 8 μM) was 10 ± 1% and the IC50 (B16-F10 cells) was 1.3 ± 0.4 µM. The “DNA damage, γ-H2AX immunostaining (in words)” value (γ-H2AX in MCF-7 cells) was “stronger DNA damaging effect on MCF-7 cells than cisplatin; also recorded: more DNA damage than compared to Cisplatin; also recorded: causes DNA damage in MCF-7 cells”, the “Nuclear accumulation of p21 (in words)” value (p21 in MCF-7 cells) was “nuclear accumulation of p21; also recorded: transcriptionally activates p21” and the IC50 (A549 cells) was 5.7 ± 1.6 µM. It also gave an IC50 of Cisplatin against MCF-7 as multiple of IC50 of the complex (MCF-7 cells [2]; MCF-7) of 27 times, an IC50 (MCF-7 cells [2]; read-out: IC50 (μM), MCF-7) of 0.55 ± 0.02 µM and an IC50 (MCF-7 cells [2]; unit nM printed in cell or sentence, read-out: IC50, MCF-7 (values given in nM)) of 0.55 ± 0.02 µM.
